Data on five molecules can be found in patent US20210318274A1, “METHODS FOR EVALUATING LIVER FUNCTION” (HepQuant, LLC, priority 2020, published 2021).

Like-named read-outs stand apart in the source and are kept apart here.

Data set [1] is described as follows: Lidocaine MEGX 15 min concentration by Child-Pugh and DSI. It counts as in vivo, human. The settings on record: by DSI score group (5-15, 15-25, 25-35, 35-45). The protocol:
Lidocaine elimination and MEGX (monoethylglycinexylidide) formation after oral lidocaine administration may be used as a quantitative assessment of liver function. […] MEGX 15 minute concentrations.

For data set [2] the following is noted: cited from earlier work.
Data set [3] in a line: Antipyrine clearance by Child-Pugh and DSI. It counts as in vivo, human. An excerpt: Antipyrine is an analgesic and antipyretic. […] Antipyrine may be used in testing the effects of other drugs or diseases on drug-metabolizing enzymes in the liver, such as various cytochrome p450 (CYP) enzymes, for example, as shown in Table 22.
The conditions of data set [4]: individuals with chronic liver disease and cirrhosis; cited from earlier work.
Details of data set [5]: species or system human. The settings on record: in vivo. The protocol:
In some embodiments, the distinguishable compound is galactose. Galactose elimination capacity (GEC) has been used as an index of residual hepatic function. Galactose in the GEC test typically is administered intravenously at a dose of […] and venous samples taken every 5 min between 20 and 60 minutes. The clearance of galactose is decreased in individuals with chronic liver disease and cirrhosis. The fact that this carbohydrate has a high extraction ratio, however, makes the metabolism of galactose dependent on liver blood flow and hepatic functional mass. […] The carbohydrate galactose is metabolized almost exclusively in the liver, and the elimination rate at blood concentrations high enough to yield near-saturated enzymatic conversion, the GEC is used as a quantitative measure of the metabolic capacity of the liver. One study has shown that among patients with a newly-diagnosed cirrhosis and a decreased GEC, the GEC was a strong predictor of mortality. (Jepsen et al, 2009, The galactose elimination capacity and mortality in 781 Danish patients with newly-diagnosed liver cirrhosis: a cohort study. BMC Gastroenterol. 2009, 9:50).

Data set [6] in a line: Obeticholic acid plasma exposure versus DSI, clinical trial in NASH. It counts as in vivo, human. The settings on record: NASH patients, fibrosis F1 to compensated F4. The source says:
Obeticholic acid (OCA) is a Farnesoid X Receptor (FXR) agonist, bile acid analog of chenodeoxycholic acid that is FDA approved for treatment of primary biliary cholangitis, and is being studied for use in treating other hepatic diseases and conditions. […] The circles are observed data; red lines are linear regression fit. OCA=Obeticholic acid. […] DSI correlates with OCA PK both at baseline (day 1) and at day 85.

For data set [7] the following is noted: in vivo. The source says:
The present inventors analyzed the relationship of DSI to pharmacokinetic parameters of various classes of drugs.
Methionine is an essential amino acid in humans, and is the substrate for other amino acids such as cysteine or taurine. Methionine also may be used to prevent liver toxicity in acetaminophen (Tylenol) poisoning, to increase acidity of urine, treat liver disorders, or improve wound healing. […] The methionine breath test may involve orally administered ^13C-methionine to detect hepatic mitochondrial dysfunction by evaluating level of ^13CO2 exhalation. ^13C methionine breath test may be used to monitor hepatic mitochondrial oxidation and drug-related mitochondrial toxicity in vivo, for example, to detect antiretroviral drug-related mitochondrial toxicity.

In the case of `CCN(CC)CC(=O)Nc1c(C)cccc1C` [Lidocaine], the “Average MEGX 15 min concentration following lidocaine” value in data set [1] is listed as “lowest PK average values”. The “First pass hepatic extraction (qualitative)” value (“First pass hepatic extraction” below) in data set [2] (substrate characterisation) is recorded as “relatively high first pass hepatic extraction”.
As to `Cc1cc(=O)n(-c2ccccc2)n1C` [Antipyrine], the Average antipyrine clearance result in data set [3] (Child-Pugh class B versus CP A5 and CP A6 patients) is on record as “decreased average antipyrine clearance”; in data set [3] (by DSI score group (5-15, 15-25, 25-35, 35-45)), “reduced average antipyrine clearance”; in data set [3] (by DSI score group (5-15, 15-25, 25-35, 35-45), listed as antipyrine) it was “lowest PK average values”. In data set [2] (in vivo), the “First pass hepatic extraction” value was “low first pass hepatic metabolism”.
Turning to `O=C[C@H](O)[C@@H](O)[C@@H](O)[C@H](O)CO` [Galactose], the Clearance of galactose result in data set [4] is on record as “decreased”. The “Average galactose elimination capacity” value in data set [5] was “decreased average galactose elimination capacity”. The “First pass hepatic extraction” value in data set [2] (substrate characterisation) is listed as “relatively high first pass hepatic extraction”.
For `CC[C@H]1[C@@H](O)[C@@H]2[C@H](CC[C@]3(C)[C@@H]([C@H](C)CCC(=O)O)CC[C@@H]23)[C@@]2(C)CC[C@@H](O)C[C@@H]12` [Obeticholic acid, 6alpha-ethyl-chenodeoxycholic acid], in data set [6], the “Plasma exposure in relation to DSI” value is “related to DSI measurement”.
Take `CSCC[C@H](N)C(=O)O` [Methionine]: the “Average ^13CO2 exhalation score (methionine breath test)” value in data set [7] (human) is reported as “reduced average ^13CO2 exhalation score”. In data set [7], the “Average ^13CO2 exhalation score (methionine breath test)” value is “lowest PK average values” and the “Average methionine breath test value” is on record as “decreased average methionine breath test values”. Besides, in data set [2] (substrate characterisation), the “First pass hepatic extraction” value is given as “relatively low first pass hepatic extraction”.
